The results in this text go back to PubChem BioAssay (NCI).

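All cell lines were grown in 96-well plates and treated with compound for 48 hours. TGI: total growth inhibition.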

Assay in all cases: inhibition of tumour cell growth, NCI panel, 48 h
Assay [1] concerns HCT-15 colon.
Assay [2] relates to ACHN renal.
Assay [3] concerns CAKI-1 renal.
The test system of assay [4] is SW-620 colon.
In assay [5] the test system is OVCAR-4 ovarian.
The test system of assay [6] is RPMI-8226 leukemia.
The test system of assay [7] is A549 NSCLC.
Assay [8] concerns OVCAR-8 ovarian.
The subject of assay [9] is NCI-H23 lung.
Assay [10] relates to SN12C renal.
Assay [11] relates to M14 melanoma.
The test system of assay [12] is HT29 colon.
Assay [13] concerns MOLT-4 leukemia.
The subject of assay [14] is HCT-116 colon.
The test system of assay [15] is SK-MEL-2 melanoma.
For assay [16], the system named is T-47D breast.
The subject of assay [17] is PC-3 prostate.
Assay [18] deals with DU-145 prostate.
In assay [19] the test system is MCF7 breast.

For `O=C(Nc1ccccc1-c1nc2ccccc2[nH]c1=O)c1ccccc1`, the TGI in assay [1] was more than 100 µM; in assay [2], 45 µM; in assay [3], 86.8 µM; in assay [4] it was 73.7 µM; in assay [5] it was 50.6 µM; in assay [6] it was 44.9 µM. The TGI in assay [7] is 69.9 µM; in [8], 66.1 µM; in assay [9], more than 100 µM; in assay [10], 69.1 µM; in assay [11] it was more than 100 µM; in [12] it was more than 100 µM. The TGI in [13] was more than 100 µM; in assay [14], 40.7 µM; in assay [15] it was 56 µM.

As to `N#Cc1[nH]c(=O)n(-c2ccccc2)c1N`, the TGI in [1], in assay [16], in assay [2], in [4], in assay [5] and in [6] was more than 10 µM each time. The TGI in assay [7], in assay [8], in [9], in [17], in assay [10] and in assay [11] was more than 10 µM in each case. The TGI in assay [12], in [13], in assay [14], in assay [18] and in assay [15] was more than 10 µM in each case.

Turning to `C[Si](C)(C)OC1CC(=O)OC1n1cc(F)c(=O)[nH]c1=O` (stereo not drawn), the TGI in assay [1] was more than 54 µM; in [2], more than 100 µM; in assay [3], more than 100 µM; in [4], more than 56 µM; in assay [5], more than 100 µM; in [6], 40.4 µM. For the same compound, the TGI in assay [7], in assay [8], in [9], in assay [10], in assay [11] and in [12] was more than 100 µM in each case. Also, the TGI in [13] is more than 100 µM; in assay [14] it was more than 69 µM; in assay [15], more than 100 µM.

On to `CCO/C=N\C1=C(C#N)SC2=N/C(=C\c3ccc(OC)cc3)C(=O)N21`, for which the TGI in [1] is more than 100 µM; in assay [16], more than 100 µM; in [2] it was more than 100 µM; in [3], more than 100 µM; in assay [4] it was more than 100 µM; in assay [5] it was 65.6 µM. For the same compound, the TGI in assay [6], in [7], in [8], in assay [9], in assay [10] and in [11] was more than 100 µM each time. Moreover, the TGI in assay [19], in assay [12], in assay [13], in assay [14] and in assay [18] was more than 100 µM each time.

For the compound `CC1=CCC(O)C=CC(C)C(O)C(C)C=C(C)C(=O)c2c(O)c(C)cc3c2C(=O)C(N)=C(NC(=O)/C=C\C=C/C=CC(C)C(O)CC1=O)C3=O` (stereo not drawn), the TGI in assay [1], in assay [2], in assay [3], in [4], in assay [5] and in assay [6] was more than 100 µM in each case. Also, the TGI in [7], in [8], in assay [9], in [10], in assay [11] and in assay [12] was more than 100 µM in each case. Moreover, the values for the TGI in assay [13], in assay [14] and in [15] were more than 100 µM, 54.4 µM and more than 100 µM, respectively.

Regarding `Cc1cc(N(CCC#N)CCC#N)ccc1/C=C(\NC(=O)/C=C/c1ccccc1)C(N)=O`, the TGI in assay [1], in assay [2], in assay [3], in assay [4], in assay [6] and in assay [7] was more than 100 µM each time. Besides, the TGI in assay [8], in assay [9], in [10], in assay [11], in [12] and in assay [13] was more than 100 µM throughout. Besides, the TGI in [14] and in assay [15] was more than 100 µM each time.

Regarding `O=C1C2C3C=C4c5ccccc5N(c5ccccc5)C4(C2C(=O)N1c1ccc([N+](=O)[O-])cc1)[C@H]1C(=O)N(c2ccc([N+](=O)[O-])cc2)C(=O)[C@@H]31` (stereo partly drawn), the TGI in assay [1], in assay [2], in [3], in assay [4], in assay [5] and in [6] was more than 100 µM throughout. In addition, the TGI in assay [7], in [8], in [9], in [10], in assay [11] and in assay [12] was more than 100 µM each time. The TGI in assay [13], in assay [14] and in [15] was more than 100 µM each time.

For `Nc1nc([O-])c2c(n1)[n+](C1OC(CO)C(O)C1O)cn2CCO` (stereo not drawn), the TGI in [1], in assay [2], in assay [3], in assay [4], in assay [5] and in assay [6] was more than 100 µM in each case. Further, the TGI in assay [7], in [8], in [10], in [11], in assay [12] and in [14] was more than 100 µM throughout. In [15], this compound yielded a TGI of more than 100 µM.

Turning to `COC(=O)C(Cc1nc2ccccc2[nH]c1=O)C(NO)C(=O)Nc1c(Cl)cc([N+](=O)[O-])cc1Cl` (stereo not drawn), the TGI in [1], in assay [2], in [3], in [5], in assay [6] and in [7] was more than 100 µM throughout. For the same compound, the TGI was more than 100 µM in assay [8]; 61.1 µM in [9]; more than 100 µM in assay [10]; more than 100 µM in assay [11]; more than 100 µM in assay [12]; 67 µM in assay [13]. Moreover, the TGI stood at 47.9 µM in [14] and 82.2 µM in [15].

With `COc1cc(OC)c2c(C)cc(=O)oc2c1`, the TGI in [1], in [2], in assay [4], in assay [5], in assay [6] and in assay [7] was more than 100 µM throughout. Moreover, the TGI in assay [8], in [9], in assay [17], in assay [10], in [11] and in [19] was more than 100 µM in each case. Moreover, the TGI in assay [12], in assay [13], in [14], in [18] and in assay [15] was more than 100 µM throughout.

For the compound `O=[N+]([O-])c1ccc(S(=O)(=O)n2c3ccc(Br)cc3c3nc4ccccc4nc32)cc1`, the TGI in assay [1], in assay [16], in [2], in assay [3], in assay [4] and in [5] was more than 100 µM in each case. Also, the TGI in assay [6], in [7], in assay [8], in assay [9], in assay [17] and in assay [10] was more than 100 µM in each case. The TGI in assay [11], in assay [12], in assay [13], in assay [14], in assay [18] and in [15] was more than 100 µM in each case.

Consider `Cc1cc(NS(=O)(=O)c2ccc(Nc3c4ccccc4nc4c(C(=O)N5CCN(CCO)CC5)cccc34)cc2)no1`, for which the TGI in [1], in assay [2], in [3], in assay [4], in assay [5] and in assay [7] was more than 100 µM each time. Moreover, the TGI in assay [8], in assay [9], in assay [10], in assay [11], in assay [12] and in assay [13] was more than 100 µM in each case. Moreover, the TGI in assay [14] and in assay [15] was more than 100 µM each time.

`Cn1cc(C2(C)CC(C)(C)c3c2n(C)c2ccccc32)c2ccccc21` (stereo not drawn): the TGI in assay [1], in assay [3], in assay [4], in [6], in assay [7] and in assay [8] was more than 100 µM each time. Also, the TGI in [9], in assay [10], in assay [11], in assay [12], in [13] and in assay [15] was more than 100 µM throughout.

Take `CCOC(=O)CC(C)C1(C(=O)OCC)CCCCC1=O` (stereo not drawn): the TGI in assay [1] was 50 µM; in assay [2], more than 100 µM; in [3], more than 100 µM; in [5], more than 100 µM; in assay [6], 60.6 µM; in assay [7], more than 100 µM. The TGI in assay [8], in [10], in [11], in assay [12], in assay [13] and in assay [14] was more than 100 µM in each case. For the same compound, in assay [15], the TGI was more than 100 µM.

As to `O=Cc1ccccc1COC(=O)c1cc(C(=O)OCc2ccccc2C=O)c(C(=O)OCc2ccccc2C=O)cc1C(=O)OCc1ccccc1C=O`, the TGI in [1], in assay [2], in assay [3], in [4], in assay [5] and in [6] was more than 100 µM each time. The TGI in assay [7], in [8], in assay [9], in assay [10], in assay [11] and in assay [12] was more than 100 µM in each case. Moreover, the TGI in assay [13], in [14] and in assay [15] was more than 100 µM in each case.

For the compound `O=c1cc(-c2ccc(Oc3ccccc3)cc2)[nH]c2cc3c(cc12)OCO3`, the TGI in assay [1], in assay [2], in assay [4], in assay [5], in assay [6] and in assay [7] was more than 100 µM each time. The TGI in [8], in assay [9], in assay [10], in [11], in assay [12] and in assay [13] was more than 100 µM in each case. The TGI in [14] and in assay [15] was more than 100 µM throughout.

In the case of `O=C(CC(=O)n1nc(-c2ccccc2)c(N=Nc2ccc(Cl)cc2)c1-c1ccccc1)Nc1ccc(Cl)cc1`, the TGI in [1] is more than 55.8 µM; in assay [2], more than 100 µM; in [3], more than 100 µM; in assay [4], more than 62.6 µM; in assay [5] it was more than 100 µM; in [6], more than 64.6 µM. The TGI is more than 60.6 µM in [7]; more than 100 µM in assay [8]; more than 100 µM in assay [9]; more than 100 µM in assay [10]; more than 100 µM in assay [11]; more than 59.7 µM in [12]. In addition, the TGI in assay [13] is more than 100 µM; in [14], more than 55.1 µM; in [15], more than 100 µM.

As for `O=C(Nc1cc(Cl)c(Cl)cc1Cl)C(=O)C1C(=O)NC(=S)NC1=O`, the TGI in [1], in assay [2], in assay [3], in [4], in assay [5] and in assay [6] was more than 100 µM each time. The TGI in assay [7], in assay [8], in [9], in [10], in [11] and in assay [12] was more than 100 µM in each case. Further, the TGI in assay [13], in assay [14] and in assay [15] was more than 100 µM each time.
